Measured values reported in paper PMC6657890 (PLoS ONE, 2019).

Target: T1, CV-IIL (Chromobacterium violaceum, UniProt Q7NX84)
T1 construct: gene CV_1744
Type: binding

T1 sequence (Q7NX84 2-114 limits assumed): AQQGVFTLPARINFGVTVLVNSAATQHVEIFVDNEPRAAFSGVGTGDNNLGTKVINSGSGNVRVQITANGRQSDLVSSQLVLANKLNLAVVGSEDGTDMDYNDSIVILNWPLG

Row | Compound | Kd [µM]
1 | OC[C@H]1OC(O)[C@@H](O)[C@@H](O)[C@@H]1O (stereo partly drawn) [D-mannose] | 25.6
2 | C[C@@H]1OC(O)[C@@H](O)[C@H](O)[C@@H]1O (stereo partly drawn) [L-fucose] | 8.2
